Several values for one entry are separate records, joined by “and”; a condition that tells them apart may be missing. Equal values may be shown once.
Columns and labels:
[1] = test system: PANC-1 Human Pancreatic Tumor Xenograft; experiment: PANC-1 xenograft tumor growth inhibition study (Example 3); type: in vivo, mouse xenograft; conditions: for % TGI: PANC-1, Day 25; for activity according to NCI Standards / #PR/CR / FINAL TUMOR VOLUME (DAY 25) MEAN ± SEM / calculated TGI values (discussion) / % TR: PANC-1; for calculated TGI values (discussion): all evaluated doses and schedules
Text: (Madison, Wis.). […] Tumor measurements were converted to cubic millimeter tumor volume using the formula^(5): […] Final mean tumor volume ±SEM for each group was reported; animals experiencing partial or complete tumor regressions or animals experiencing technical or drug-related deaths were censored from these calculations. […] TGI values for each treatment group are reported at study completion; these calculations are based on the final study day. […] If partial tumor regression was reported in multiple animals within one group, a mean value was determined. Individual mice lacking palpable tumors were classified as undergoing complete regression (CR). Animals experiencing partial or complete tumor regressions were censored from TGI calculations. However, data from these animals was included in statistical analysis calculations. In addition, weight data from these animals was included in daily and final group calculations. Tumor Necrosis-Degree of tumor necrosis was rated at each tumor measurement using the following arbitrary index: [table]

[2] = PANC-1 study: animal weight and drug toxicity
Text: (§1) Model Information—Female nude mice (nu/nu) between 5 and 6 weeks of age weighing approximately 20 grams were obtained from Harlan, Inc. (Madison, Wis.). PANC-1, obtained from the ATCC, is a pancreas tumor cell line originating from a person^(1-2). BxPC-3, obtained from the American Type Culture Collection (ATCC), is a pancreas tumor cell line originating from a person^(3-4). PANC-1 Study: Animals were implanted subcutaneously (SC) by trocar with fragments of PANC-1 harvested from SC growing tumors in nude mice hosts. When tumors grew to approximately 135 cubic millimeters (mm^3) in size (17 days following implantation, animals were pair-matched by tumor size into treatment and control groups; each treatment group contained nine mice. BxPC-3 Study: Animals were implanted subcutaneously (SC) by trocar with fragments of BxPC-3 harvested from SC growing tumors in nude mice hosts. When tumors grew to approximately 85 cubic millimeters (mm^3) in size (19 days following implantation), animals were pair-matched by tumor size into treatment and control groups; each treatment group contained nine mice. Animals in both studies were ear-tagged and followed individually throughout the experiment.
(§2) Study Design and Dosing—Initial doses were administered on Day 1 following pair-matching; both experiments were carried out as tumor growth inhibition (TGT) studies. Animals were dosed intravenously (IV) via tail vein with FK228 once every four days for three treatments (Q4Dx3) or by intraperitoneal (IP) injection with gemcitabine once every three days for four treatments (Q3Dx4), either alone or in combination, at the doses listed below (Table 1). To serve as a negative control, FK228 vehicle (2% ethanol, 8% propylene glycol, 90% 0.9% saline) was injected on a Q4Dx3 schedule.
(§3) Animal Weights—Individual and group mean weights ±SD and percent weight change through Day 25 (PANC-1) or Day 29 (BxPC-3) were recorded twice weekly until study completion beginning Day 1. Final group mean weights ±SD and group nadir values are reported; weight data from individual animals experiencing technical or drug-related deaths was censored from final group calculations.
(§4) Moribundity/Mortality—Animals were observed twice weekly for general moribundity and daily for mortality. Animal deaths were assessed as drug-related or technical based on factors including gross observation and weight loss; reported animal death information includes type, number, and day of death for each group.
(§5) Statistics—Statistical analyses were carried out between treated and control groups comparing final weight, percent weight change, and tumor growth inhibition (Appendix III). For these groups, a two-tailed One-Way Analysis of Variance (ANOVA) followed by the Dunnett multiple comparisons test was employed. All analyses are performed using GraphPad Prism® software (version 4.0). Weight and tumor data from individual animals experiencing technical or drug-related deaths was censored from analysis.

[3] = BxPC-3 study: animal weight and drug toxicity
Text: as §1, §2, §3, §4, §5

[4] = FK228 2.5 mg/kg IV Q4Dx3, 2.5 mg/kg
[5] = FK228 5 mg/kg IV Q4Dx3, 5 mg/kg

For `C/C=C1\NC(=O)[C@H]2CSSCC/C=C/[C@H](CC(=O)N[C@H](C(C)C)C(=O)N2)OC(=O)[C@H](C(C)C)NC1=O` [FK228, romidepsin], the “% TGI” value ([1]; FK228 2.5 mg/kg IV Q4Dx3) was 26%, the “% TGI” value ([1]; FK228 5 mg/kg IV Q4Dx3) was 26% and the “activity according to NCI Standards” value ([1]; FK228 2.5 mg/kg IV Q4Dx3) was “inactive”. For the same molecule, the “#PR/CR” value [1, 4] was 0/9 and 0/0, the “FINAL TUMOR VOLUME (DAY 25) MEAN ± SEM” value [1, 4] was 1688±290 mm^3 and the “activity according to NCI Standards” value ([1]; FK228 5 mg/kg IV Q4Dx3) was “inactive”. The “#PR/CR” value [1, 5] was 0/9 and 0/0, the “FINAL TUMOR VOLUME (DAY 25) MEAN ± SEM” value [1, 5] was 1690±290 mm^3 and 1690 ± 331 mm^3 and the “calculated TGI values (discussion)” value [1] was “less than 58%”. For the same molecule, the “single agent activity towards tumor model” value ([1]; ras-transformed PANC-1) was “some activity”, the “FINAL WEIGHT (DAY 25) % CHANGE” value ([2]; FK228 2.5 mg/kg IV Q4Dx3) was “+8%” and the “WEIGHT NADIR % CHANGE” value ([2]; FK228 2.5 mg/kg IV Q4Dx3) was −9%. The “WEIGHT NADIR DAY” value ([2]; FK228 2.5 mg/kg IV Q4Dx3) was 11, the “DRUG DEATHS TOTAL” value [2, 4] was 0/9 and 0 and the “FINAL WEIGHT (DAY 25) MEAN(G) ± SD” value [2, 4] was 21 ± 2 G. The “FINAL WEIGHT (DAY 25) % CHANGE” value ([2]; FK228 5 mg/kg IV Q4Dx3) was “+9%”, the “WEIGHT NADIR % CHANGE” value ([2]; FK228 5 mg/kg IV Q4Dx3) was −12% and the “WEIGHT NADIR DAY” value ([2]; FK228 5 mg/kg IV Q4Dx3) was 11. The “DRUG DEATHS TOTAL” value [2, 5] was 0/9 and 0, the “FINAL WEIGHT (DAY 25) MEAN(G) ± SD” value [2, 5] was 25±2 G and the “FINAL WEIGHT (DAY 29) % CHANGE” value ([3]; FK228 2.5 mg/kg IV Q4Dx3) was “+10%”. For the same molecule, the “WEIGHT NADIR % CHANGE” value ([3]; FK228 2.5 mg/kg IV Q4Dx3) was −5%, the “WEIGHT NADIR DAY” value ([3]; FK228 2.5 mg/kg IV Q4Dx3) was 11 and the “DRUG DEATHS TOTAL” value [3, 4] was 0/9 and 0. For the same molecule, the “FINAL WEIGHT (DAY 29) MEAN(G) ± SD” value [3, 4] was 25±2 G, the “FINAL WEIGHT (DAY 29) % CHANGE” value ([3]; FK228 5 mg/kg IV Q4Dx3) was “+7%” and the “WEIGHT NADIR % CHANGE” value ([3]; FK228 5 mg/kg IV Q4Dx3) was −15%. The “WEIGHT NADIR DAY” value ([3]; FK228 5 mg/kg IV Q4Dx3) was 11, the “DRUG DEATHS TOTAL” value [3, 5] was 0/9 and 0 and the “FINAL WEIGHT (DAY 29) MEAN(G) ± SD” value [3, 5] was 24±1 G.

For `Nc1ccn([C@@H]2O[C@H](CO)[C@@H](O)C2(F)F)c(=O)n1` [Gemcitabine, gemcitabine], the “% TGI” value ([1]; Gemcitabine 40 mg/kg IP Q3Dx4) was 31%, the “% TGI” value ([1]; Gemcitabine 80 mg/kg IP Q3Dx4) was 51% and the “#PR/CR” value ([1]; Gemcitabine 40 mg/kg IP Q3Dx4) was 1/9 and 1/0. For the same molecule, the “% TR” value ([1]; Gemcitabine 40 mg/kg IP Q3Dx4) was 62%, the “FINAL TUMOR VOLUME (DAY 25) MEAN ± SEM” value ([1]; Gemcitabine 40 mg/kg IP Q3Dx4) was 1566±255 mm^3 and the “activity according to NCI Standards” value ([1]; Gemcitabine 40 mg/kg IP Q3Dx4) was “inactive”. For the same molecule, the “% TR” value ([1]; Gemcitabine 40 mg/kg IP Q3Dx4, listed as gemcitabine) was 62%, the “#PR/CR” value ([1]; Gemcitabine 80 mg/kg IP Q3Dx4) was 0/9 and 0/0 and the “FINAL TUMOR VOLUME (DAY 25) MEAN ± SEM” value ([1]; Gemcitabine 80 mg/kg IP Q3Dx4) was 1172±234 mm^3. The “activity according to NCI Standards” value ([1]; Gemcitabine 80 mg/kg IP Q3Dx4) was “inactive”, the “calculated TGI values (discussion)” value [1] was “less than 58%” and the “DRUG DEATHS TOTAL” value ([2]; Gemcitabine 40 mg/kg IP Q3Dx4) was 0/9 and 0. For the same molecule, the “FINAL WEIGHT (DAY 25) % CHANGE” value ([2]; Gemcitabine 40 mg/kg IP Q3Dx4) was “+7%”, the “FINAL WEIGHT (DAY 25) MEAN(G) ± SD” value ([2]; Gemcitabine 40 mg/kg IP Q3Dx4) was 24±1 G and the “WEIGHT NADIR % CHANGE” value ([2]; Gemcitabine 40 mg/kg IP Q3Dx4) was −2%. The “WEIGHT NADIR DAY” value ([2]; Gemcitabine 40 mg/kg IP Q3Dx4) was 11, the “DRUG DEATHS TOTAL” value ([2]; Gemcitabine 80 mg/kg IP Q3Dx4) was 0/9 and 0 and the “FINAL WEIGHT (DAY 25) % CHANGE” value ([2]; Gemcitabine 80 mg/kg IP Q3Dx4) was “+12%”. For the same molecule, the “FINAL WEIGHT (DAY 25) MEAN(G) ± SD” value ([2]; Gemcitabine 80 mg/kg IP Q3Dx4) was 26±3 G, the “WEIGHT NADIR % CHANGE” value ([2]; Gemcitabine 80 mg/kg IP Q3Dx4) was −3% and the “WEIGHT NADIR DAY” value ([2]; Gemcitabine 80 mg/kg IP Q3Dx4) was 11. The “DRUG DEATHS TOTAL” value ([3]; Gemcitabine 40 mg/kg IP Q3Dx4) was 0/9 and 0, the “FINAL WEIGHT (DAY 29) % CHANGE” value ([3]; Gemcitabine 40 mg/kg IP Q3Dx4) was “+9%” and the “weight loss (nadir)” value ([3]; Gemcitabine 40 mg/kg IP Q3Dx4) was “No weight loss”. The “DRUG DEATHS TOTAL” value ([3]; Gemcitabine 80 mg/kg IP Q3Dx4) was 0/9 and 0, the “FINAL WEIGHT (DAY 29) % CHANGE” value ([3]; Gemcitabine 80 mg/kg IP Q3Dx4) was “+1%” and the “FINAL WEIGHT (DAY 29) MEAN(G) ± SD” value ([3]; Gemcitabine 80 mg/kg IP Q3Dx4) was 22±4 G and 22 + 4 G. For the same molecule, the “WEIGHT NADIR % CHANGE” value ([3]; Gemcitabine 80 mg/kg IP Q3Dx4) was −9% and the “WEIGHT NADIR DAY” value ([3]; Gemcitabine 80 mg/kg IP Q3Dx4) was 11.

Source: patent US20100137239A1, “GEMCITABINE COMBINATION THERAPY” (GLOUCESTER PHARMACEUTICALS, priority 2006, published 2010)
